Results published in patent US20230086703A1, “N-(4-(5-chloropyridin-3-yl)phenyl)-2-(2-(cyclopropanesulfonamido)pyrimidin-4-yl) butanamide derivatives and related compounds as human CTPS1 inhibitors for the treatment of proliferative diseases” (Step Pharma S.A.S., priority 2019, published 2023).

Target: T1, human CTPS1 (Homo sapiens, UniProt P17812)
T1 construct: FLAG (with GG linker); His8 (with GG linker); purchased Proteros biostructures GmbH
T1 sequence (P17812 1-591): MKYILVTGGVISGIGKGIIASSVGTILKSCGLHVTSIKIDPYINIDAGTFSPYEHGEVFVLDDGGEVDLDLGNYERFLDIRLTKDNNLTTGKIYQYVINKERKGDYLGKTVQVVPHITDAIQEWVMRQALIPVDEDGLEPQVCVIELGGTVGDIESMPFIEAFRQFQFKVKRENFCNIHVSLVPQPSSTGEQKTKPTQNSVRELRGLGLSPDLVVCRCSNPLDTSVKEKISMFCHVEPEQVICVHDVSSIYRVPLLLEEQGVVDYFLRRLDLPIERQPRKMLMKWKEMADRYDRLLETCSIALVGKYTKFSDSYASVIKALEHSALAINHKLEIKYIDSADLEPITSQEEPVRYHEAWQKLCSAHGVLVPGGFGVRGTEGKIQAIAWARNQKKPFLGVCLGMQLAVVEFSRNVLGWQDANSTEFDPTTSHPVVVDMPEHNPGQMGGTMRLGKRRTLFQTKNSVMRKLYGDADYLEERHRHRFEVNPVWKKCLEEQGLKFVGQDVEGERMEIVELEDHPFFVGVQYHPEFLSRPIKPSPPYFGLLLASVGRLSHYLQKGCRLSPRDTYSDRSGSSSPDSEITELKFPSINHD
Test: Human CTPS1 enzyme inhibition, ADP-Glo Max assay
Assay type: biochemical
Details: ADP-Glo Max assay; Table 10; read-out: Human CTPS1 Enzyme Inhibition, IC50 grouped by potency range (CTPS1)
In short: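 Enzyme preincubated with compound for 10 min at 25 °C in 50 mM Tris pH 8.0, 10 mM MgCl2, 0.01% Tween-20, 2 mM L-cysteine. ATP-to-ADP conversion detected by ADP-Glo Max luminescence after 60 min depletion and 60 min development steps. Percentage inhibition calculated per concentration.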

IC50	Compound
100 to 1000 nM	CCOc1cncc(-c2ccc(NC(=O)C(C)(C)c3csc(NS(=O)(=O)C(F)(F)F)n3)cc2)n1 [T296, N-(4-(6-ethoxypyrazin-2-yl)phenyl)-2-methyl-2-(2-((trifluoromethyl)sulfonamido)thiazol-4-yl)propanamide]
1000 to 10000 nM	CC(C)S(=O)(=O)Nc1nc(C(C)(C)C(=O)Nc2ccc(-c3cccnc3)cc2)cs1 [T297, 2-methyl-2-(2-((1-methylethyl)sulfonamido)thiazol-4-yl)-N-(4-(pyridin-3-yl)phenyl)propanamide]
< 100 nM	CCOc1cncc(-c2ccc(NC(=O)C(C)(C)c3csc(NS(=O)(=O)C(C)C)n3)cc2)n1 [T298, N-(4-(6-ethoxypyrazin-2-yl)phenyl)-2-methyl-2-(2-((1-methylethyl)sulfonamido)thiazol-4-yl)propanamide]
100 to 1000 nM	CC(C)(C(=O)Nc1ccc(-c2cccnc2)cc1)c1csc(NS(=O)(=O)C2(C)CC2)n1 [T299, 2-methyl-2-(2-((1-methylcyclopropane)-1-sulfonamido)thiazol-4-yl)-N-(4-(pyridin-3-yl)phenyl)propanamide]
100 to 1000 nM	CC(C)(C(=O)Nc1ccc(-c2cncc(Cl)c2)cc1)c1csc(NS(=O)(=O)C2(C)CC2)n1 [T300, N-(4-(5-chloropyridin-3-yl)phenyl)-2-methyl-2-(2-((1-methylcyclopropane)-1-sulfonamido)thiazol-4-yl)propanamide]
< 100 nM	CCOc1cncc(-c2ccc(NC(=O)C(C)(C)c3csc(NS(=O)(=O)C4(C)CC4)n3)cc2)n1 [T301, N-(4-(6-ethoxypyrazin-2-yl)phenyl)-2-methyl-2-(2-((1-methylcyclopropane)-1-sulfonamido)thiazol-4-yl)propanamide]
100 to 1000 nM	CC(C)(C(=O)Nc1ccc(-c2cncc(C(F)(F)F)n2)cc1)c1csc(NS(=O)(=O)C2(C)CC2)n1 [T302, 2-methyl-2-(2-((1-methylcyclopropane)-1-sulfonamido)thiazol-4-yl)-N-(4-(6-(trifluoromethyl)pyrazin-2-yl)phenyl)propanamide]
1000 to 10000 nM	CC(C)(C(=O)Nc1ccc(-c2cccnc2)cc1)c1csc(NS(=O)(=O)C(C)(C)C)n1 [T303, 2-(2-((1,1-dimethylethyl)sulfonamido)thiazol-4-yl)-2-methyl-N-(4-(pyridin-3-yl)phenyl)propanamide]
100 to 1000 nM	CCOc1cncc(-c2ccc(NC(=O)C(C)(C)c3csc(NS(=O)(=O)C(C)(C)C)n3)cc2)n1 [T304, 2-(2-((1,1-dimethylethyl)sulfonamido)thiazol-4-yl)-N-(4-(6-ethoxypyrazin-2-yl)phenyl)-2-methylpropanamide]
100 to 1000 nM	CC(C)(C(=O)Nc1ccc(-c2cncc(C(F)(F)F)n2)cc1)c1csc(NS(=O)(=O)C(C)(C)C)n1 [T305, 2-(2-((1,1-dimethylethyl)sulfonamido)thiazol-4-yl)-2-methyl-N-(4-(6-(trifluoromethyl)pyrazin-2-yl)phenyl)propanamide]
100 to 1000 nM	CC(C)(C(=O)Nc1ccc(-c2cccnc2)cc1)c1csc(NS(=O)(=O)C2CCC2)n1 [T306, 2-(2-(cyclobutanesulfonamido)thiazol-4-yl)-2-methyl-N-(4-(pyridin-3-yl)phenyl)propanamide]
< 100 nM	CCOc1cncc(-c2ccc(NC(=O)C(C)(C)c3csc(NS(=O)(=O)C4CCC4)n3)cc2)n1 [T307, 2-(2-(cyclobutanesulfonamido)thiazol-4-yl)-N-(4-(6-ethoxypyrazin-2-yl)phenyl)-2-methylpropanamide]
100 to 1000 nM	CC(C)(C(=O)Nc1ccc(-c2cncc(C(F)(F)F)n2)cc1)c1csc(NS(=O)(=O)C2CCC2)n1 [T308, 2-(2-(cyclobutanesulfonamido)thiazol-4-yl)-2-methyl-N-(4-(6-(trifluoromethyl)pyrazin-2-yl)phenyl)propanamide]
1000 to 10000 nM	CN(C(=O)C(C)(C)c1csc(NS(=O)(=O)C2CC2)n1)c1ccc(-c2cncc(C#N)c2)cc1 [T309, N-(4-(5-cyanopyridin-3-yl)phenyl)-2-(2-(cyclopropanesulfonamido)thiazol-4-yl)-N,2-dimethylpropanamide]
1000 to 10000 nM	CN(C(=O)C(C)(C)c1csc(NS(=O)(=O)C2CC2)n1)c1ccc(-c2cncc(C(F)(F)F)n2)cc1 [T310, 2-(2-(cyclopropanesulfonamido)thiazol-4-yl)-N,2-dimethyl-N-(4-(6-(trifluoromethyl)pyrazin-2-yl)phenyl)propanamide]
1000 to 10000 nM	CC(C)CS(=O)(=O)Nc1nc(C(C)(C)C(=O)Nc2ccc(-c3cccnc3)cc2)cs1 [T311, 2-methyl-2-(2-((2-methylpropyl)sulfonamido)thiazol-4-yl)-N-(4-(pyridin-3-yl)phenyl)propanamide]

IC50	Compound
100 to 1000 nM	CCOc1cncc(-c2ccc(NC(=O)C(C)(C)c3csc(NS(=O)(=O)CC(C)C)n3)cc2)n1 [T312, N-(4-(6-ethoxypyrazin-2-yl)phenyl)-2-methyl-2-(2-((2-methylpropyl)sulfonamido)thiazol-4-yl)propanamide]
100 to 1000 nM	CC(C)CS(=O)(=O)Nc1nc(C(C)(C)C(=O)Nc2ccc(-c3cncc(C(F)(F)F)n3)cc2)cs1 [T313, 2-methyl-2-(2-((2-methylpropyl)sulfonamido)thiazol-4-yl)-N-(4-(6-(trifluoromethyl)pyrazin-2-yl)phenyl)propanamide]
1000 to 10000 nM	CN(C(=O)C(C)(C)c1csc(NS(=O)(=O)C2CC2)n1)c1ccc(-c2cncc(Cl)c2)cc1 [T318, N-(4-(5-chloropyridin-3-yl)phenyl)-2-(2-(cyclopropanesulfonamido)thiazol-4-yl)-N,2-dimethylpropanamide]
1000 to 10000 nM	Cc1sc(NS(=O)(=O)C2CC2)nc1C(C)(C)C(=O)Nc1ccc(-c2cccnc2)cc1 [T319, 2-(2-(cyclopropanesulfonamido)-5-methylthiazol-4-yl)-2-methyl-N-(4-(pyridin-3-yl)phenyl)propanamide]
100 to 1000 nM	Cc1cc(-c2cncc(C#N)c2)cc(C)c1NC(=O)C(C)(C)c1csc(NS(=O)(=O)C2CC2)n1 [T320, N-(4-(5-cyanopyridin-3-yl)-2,6-dimethylphenyl)-2-(2-(cyclopropanesulfonamido)thiazol-4-yl)-2-methylpropanamide]
< 100 nM	Cc1cc(-c2cncc(Cl)c2)cc(C)c1NC(=O)C(C)(C)c1csc(NS(=O)(=O)C2CC2)n1 [T321, N-(4-(5-chloropyridin-3-yl)-2,6-dimethylphenyl)-2-(2-(cyclopropanesulfonamido)thiazol-4-yl)-2-methylpropanamide]
100 to 1000 nM	Cc1cc(NC(=O)C(C)(C)c2csc(NS(=O)(=O)C3CC3)n2)ccc1-c1cncc(C#N)c1 [T322, N-(4-(5-cyanopyridin-3-yl)-3-methylphenyl)-2-(2-(cyclopropanesulfonamido)thiazol-4-yl)-2-methylpropanamide]
< 100 nM	CCOc1cncc(-c2ccc(NC(=O)C(N)c3csc(NS(=O)(=O)C4CC4)n3)cc2)n1 (stereo not shown) [T325, 2-Amino-2-(2-(cyclopropanesulfonamido)thiazol-4-yl)-N-(4-(6-ethoxypyrazin-2-yl)phenyl)acetamide]
1000 to 10000 nM	CC(C)(C(=O)Nc1ccc(-c2cncc(Cl)c2)c(C(F)(F)F)c1)c1csc(NS(=O)(=O)C2CC2)n1 [T370, N-(4-(5-chloropyridin-3-yl)-3-(trifluoromethyl)phenyl)-2-(2-(cyclopropanesulfonamido)thiazol-4-yl)-2-methylpropanamide]
100 to 1000 nM	CCOc1cncc(-c2ccc(NC(=O)C(F)(F)c3csc(NS(=O)(=O)C4CC4)n3)nc2)n1 [T422, 2-(2-(cyclopropanesulfonamido)thiazol-4-yl)-N-(5-(6-ethoxypyrazin-2-yl)pyridin-2-yl)-2,2-difluoroacetamide]
< 100 nM	CCOc1cncc(-c2ccc(NC(=O)Cc3csc(NS(=O)(=O)C4CC4)n3)c(F)c2)n1 [T423, 2-(2-(cyclopropanesulfonamido)thiazol-4-yl)-N-(4-(6-ethoxypyrazin-2-yl)-2-fluorophenyl)acetamide]
< 100 nM	CCOc1cncc(-c2ccc(NC(=O)Cc3csc(NS(=O)(=O)C4CC4)n3)cc2)n1 [T424, 2-(2-(cyclopropanesulfonamido)thiazol-4-yl)-N-(4-(6-ethoxypyrazin-2-yl)phenyl)acetamide]
< 100 nM	CC(C)(C(=O)Nc1ccc(-c2cncc(C(F)(F)F)n2)cn1)c1csc(NS(C)(=O)=O)n1 [T425, 2-methyl-2-(2-(methylsulfonamido)thiazol-4-yl)-N-(5-(6-(trifluoromethyl)pyrazin-2-yl)pyridin-2-yl)propanamide]
100 to 1000 nM	CC(C)(C(=O)Nc1ccc(-c2cncc(C(F)(F)F)c2)cc1F)c1csc(NS(C)(=O)=O)n1 [T426, N-(2-fluoro-4-(5-(trifluoromethyl)pyridin-3-yl)phenyl)-2-methyl-2-(2-(methylsulfonamido)thiazol-4-yl)propanamide]
100 to 1000 nM	CC(C)(C(=O)Nc1ccc(-c2cncc(C(F)(F)F)c2)cc1F)c1csc(NS(=O)(=O)CC2CC2)n1 [T427, 2-(2-((cyclopropylmethyl)sulfonamido)thiazol-4-yl)-N-(2-fluoro-4-(5-(trifluoromethyl)pyridin-3-yl)phenyl)-2-methylpropanamide]
